These results are taken from US10829484B2, “Compounds and methods for kinase modulation, and indications therefor” (Plexxikon Inc., priority 2015, dated 2020).

Molecules are shown by their SMILES.

The target in this assay is T1, BaF3-FLT3-ITD-D835V (Homo sapiens, UniProt P36888, INS600HVDFREYEYD/D835V, cells depend on it).
T1 sequence (P36888 with tags, fused parts or gaps INS600HVDFREYEYD/D835V): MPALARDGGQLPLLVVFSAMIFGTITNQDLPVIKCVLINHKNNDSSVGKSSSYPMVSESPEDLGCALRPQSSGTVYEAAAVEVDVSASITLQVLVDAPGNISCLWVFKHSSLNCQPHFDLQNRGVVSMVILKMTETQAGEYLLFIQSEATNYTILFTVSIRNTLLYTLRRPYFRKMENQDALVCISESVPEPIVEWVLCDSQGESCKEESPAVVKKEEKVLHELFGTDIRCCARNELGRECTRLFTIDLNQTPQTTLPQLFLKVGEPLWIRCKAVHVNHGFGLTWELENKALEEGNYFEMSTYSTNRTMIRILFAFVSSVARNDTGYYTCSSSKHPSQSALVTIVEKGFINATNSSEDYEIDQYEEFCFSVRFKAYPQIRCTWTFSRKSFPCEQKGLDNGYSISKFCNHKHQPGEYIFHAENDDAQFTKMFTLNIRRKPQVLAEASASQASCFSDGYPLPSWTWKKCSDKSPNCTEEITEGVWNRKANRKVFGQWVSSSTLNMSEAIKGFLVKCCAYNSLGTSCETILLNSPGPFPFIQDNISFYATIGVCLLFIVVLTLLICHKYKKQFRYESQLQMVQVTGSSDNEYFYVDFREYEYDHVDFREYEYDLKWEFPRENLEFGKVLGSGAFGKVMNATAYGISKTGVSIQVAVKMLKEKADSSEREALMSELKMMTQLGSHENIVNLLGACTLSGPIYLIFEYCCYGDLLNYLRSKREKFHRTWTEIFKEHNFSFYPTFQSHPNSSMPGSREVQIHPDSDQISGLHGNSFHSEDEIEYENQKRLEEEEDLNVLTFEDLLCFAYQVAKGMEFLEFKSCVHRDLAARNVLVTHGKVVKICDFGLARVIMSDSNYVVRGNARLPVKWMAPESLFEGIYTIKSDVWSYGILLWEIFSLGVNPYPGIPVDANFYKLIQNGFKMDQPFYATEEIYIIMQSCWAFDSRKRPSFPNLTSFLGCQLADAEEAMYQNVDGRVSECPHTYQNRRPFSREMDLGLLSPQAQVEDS
The assay is described as follows: CTB viability assay CS0048, BaF3-FLT3-ITD-D835V. It is filed as cell-based, murine. To be noted: BaF3-FLT3-ITD-D835V cells, CellTiter Blue viability, 72 hours; read-out: Cell Assay: CS0048: BaF3-FLT3-ITD-D835V CTB:IC50. The text has this:
Gene constructs containing the human FLT3 sequences FLT3-ITD, FLT3-ITD-F691L, FLT3-ITD-D835V and FLT3-D835V were synthesized by reverse translation of the human protein sequences, with codons optimized for mammalian expression. Sequence of the internal tandem duplication (ITD) was based on the MV4-11 ITD sequence. Synthetic DNA constructs were cloned into the pMSCV puro retroviral vector (Clontech) and transfected into the EcoPack2-293 packaging cell line (Clontech) to generate retroviruses that contain the different FLT3 constructs. Viruses were transduced into the IL-3-dependent, murine […] cell line, Ba/F3, and selected for puromycin resistance and IL-3 independence. All cell lines were cloned by limiting dilution and clones were used for all subsequent cell assays. Overexpression of the FLT3 mutants in the Ba/F3 cells results in constitutive phosphorylation of the exogenous FLT3 protein, which is required for IL-3 independence.
Cell lines were serum starved overnight in media containing 0.5% FBS, plated at 15,000 cells/well in 96-well white-walled tissue culture plates, and 3-fold serial dilutions of test compounds of Formula I were added for 72 hours at 37° C. CellTiter Blue (CTB, Promega) was added and incubated for an additional 3 hours at 37° C. Fluorescence was read at 560 nm excitation, 590 nm emission. Wells with CTB+media only were used for background subtraction, and the fluorescence of compound-treated cells was normalized to the fluorescence of DMSO-treated cells. IC50s were determined using Igor Pro software. All compounds are assayed in duplicate cell plates.

In the case of `COc1nn(C)cc1Nc1ncc(-c2ccc(CC(=O)Nc3cc(C4(C(F)(F)F)CC4)on3)c(F)c2)c(OC)n1` [P-123, 2-[2-fluoro-4-[4-methoxy-2-[(3-methoxy-1-methyl-pyrazol-4-yl)amino]pyrimidin-5-yl]phenyl]-N-[5-[1-(trifluoromethyl)cyclopropyl]isoxazol-3-yl]acetamide], the GI50 was 10 to 50 nM. In the case of `Cn1cc(Nc2ncc(-c3ccc(CC(=O)Nc4cc(C5(C(F)(F)F)CC5)on4)c(F)c3)cn2)c(C(F)(F)F)n1` [P-077, 2-[2-fluoro-4-[2-[[1-methyl-3-(trifluoromethyl)pyrazol-4-yl]amino]pyrimidin-5-yl]phenyl]-N-[5-[1-(trifluoromethyl)cyclopropyl]isoxazol-3-yl]acetamide], the GI50 lay within 10 to 50 nM.

For the molecule `CCn1nccc1Nc1ncc(-c2ccc(CC(=O)Nc3cc(C4(C(F)(F)F)CC4)on3)c(F)c2)cn1` [P-103, 2-[4-[2-[(2-ethylpyrazol-3-yl)amino]pyrimidin-5-yl]-2-fluorophenyl]-N-[5-[1-(trifluoromethyl)cyclopropyl]isoxazol-3-yl]acetamide], the GI50 was in the range of 10 to 50 nM. In the case of `Cc1nn(C)cc1Nc1ncc(-c2ccc(CC(=O)Nc3cc(C4(C(F)(F)F)CC4)on3)c(F)c2)c(Cl)n1` [P-157, 2-[4-[4-chloro-2-[(1,3-dimethylpyrazol-4-yl)amino]pyrimidin-5-yl]-2-fluoro-phenyl]-N-[5-[1-(trifluoromethyl)cyclopropyl]isoxazol-3-yl]acetamide] it was 10 to 50 nM.

`Cn1cnc(Nc2ncc(-c3ccc(CC(=O)Nc4cc(C5(C(F)F)CC5)on4)c(F)c3)cn2)c1` [P-184, N-[5-[1-(difluoromethyl)cyclopropyl]isoxazol-3-yl]-2-[2-fluoro-4-[2-[(1-methylimidazol-4-yl)amino]pyrimidin-5-yl]phenyl] acetamide]: the GI50 lay in the range of 10 to 50 nM. In the case of `Cn1cnc(Nc2ncc(-c3ccc(CC(=O)Nc4cc(C5(C)CC5)no4)c(F)c3)cn2)c1` [P-112, 2-[2-fluoro-4-[2-[(1-methylimidazol-4-yl)amino]pyrimidin-5-yl]phenyl]-N-[3-(1-methylcyclopropyl)isoxazol-5-yl]acetamide], the GI50 lay in the range of 10 to 50 nM.

With `O=C(Cc1ccc(-c2cnc(Nc3ccccc3)cn2)cc1F)Nc1cc(C2(C(F)(F)F)CC2)on1` [P-005, 2-[4-(5-anilinopyrazin-2-yl)-2-fluorophenyl]-N-[5-[1-(trifluoromethyl)cyclopropyl]isoxazol-3-yl]acetamide], the GI50 lay within 10 to 50 nM.

In the case of `COc1nn(C)cc1Nc1ncc(-c2ccc(CC(=O)Nc3cc(C4(C(F)(F)F)CC4)on3)c(F)c2)c(C)n1` [P-124, 2-[2-fluoro-4-[2-[(3-methoxy-1-methylpyrazol-4-yl)amino]-4-methyl-pyrimidin-5-yl]phenyl]-N-[5-[1-(trifluoromethyl)cyclopropyl]isoxazol-3-yl] acetamide], the GI50 was in the range of 10 to 50 nM. In the case of `COc1cc(Nc2ncc(-c3ccc(CC(=O)Nc4cc(C5(C(F)(F)F)CC5)on4)c(F)c3)cn2)n(C)n1` [P-164, 2-[2-fluoro-4-[2-[(5-methoxy-2-methyl-pyrazol-3-yl)amino]pyrimidin-5-yl]phenyl]-N-[5-[1-(trifluoromethyl)cyclopropyl]isoxazol-3-yl]acetamide] it was 10 to 50 nM; in that of `CC(O)c1nn(C)cc1Nc1ncc(-c2ccc(CC(=O)Nc3cc(C4(C(F)(F)F)CC4)on3)c(F)c2)cn1` (stereo not drawn) [P-114, 2-[2-fluoro-4-[2-[[3-(1-hydroxyethyl)-1-methylpyrazol-4-yl]amino]pyrimidin-5-yl]phenyl]-N-[5-[1-(trifluoromethyl)cyclopropyl]isoxazol-3-yl]acetamide], 10 to 50 nM. In the case of `Cn1nccc1Nc1ncc(-c2ccc(CC(=O)Nc3cc(C4(C(F)(F)F)CC4)on3)c(F)c2)cn1` [P-091, 2-[2-fluoro-4-[2-[(2-methylpyrazol-3-yl)amino]pyrimidin-5-yl]phenyl]-N-[5-[1-(trifluoromethyl)cyclopropyl]isoxazol-3-yl]acetamide] it was 10 to 50 nM; in that of `O=C(Cc1ccc(-c2ccc(Nc3ccccc3)nc2)cc1F)Nc1cc(C2(C(F)(F)F)CC2)on1` [P-003, 2-[4-(6-anilino-3-pyridyl)-2-fluoro-phenyl]-N-[5-[1-(trifluoromethyl)cyclopropyl]isoxazol-3-yl]acetamide], 10 to 50 nM; in that of `COCCOc1nn(C)cc1Nc1ncc(-c2ccc(CC(=O)Nc3cc(C4(C(F)(F)F)CC4)on3)c(F)c2)cn1` [P-148, 2-[2-fluoro-4-[2-[[3-(2-methoxyethoxy)-1-methylpyrazol-4-yl]amino]pyrimidin-5-yl]phenyl]-N-[5-[1-(trifluoromethyl)cyclopropyl]isoxazol-3-yl]acetamide], 10 to 50 nM. The same measure for `CCc1n[nH]cc1Nc1ncc(-c2ccc(CC(=O)Nc3cc(C4(C(F)(F)F)CC4)on3)c(F)c2)cn1` [P-214, 2-(4-(2-((3-ethyl-1H-pyrazol-4-yl)amino)pyrimidin-5-yl)-2-fluorophenyl)-N-(5-(1-(trifluoromethyl)cyclopropyl)isoxazol-3-yl)acetamide]: 10 to 50 nM; for `Cc1cc(C(=O)N(C)C)ccc1Nc1ncc(-c2ccc(CC(=O)Nc3cc(C4(C(F)(F)F)CC4)on3)c(F)c2)cn1` [P-113, 4-[[5-[3-fluoro-4-[2-oxo-2-[[5-[1-(trifluoromethyl)cyclopropyl]isoxazol-3-yl]amino]ethyl]phenyl]pyrimidin-2-yl]amino]-N,N,3-trimethyl-benzamide]: 10 to 50 nM. In the case of `CCn1cnc(Nc2ncc(-c3ccc(CC(=O)Nc4cc(C5(C(F)(F)F)CC5)on4)c(F)c3)cn2)c1` [P-068, 2-[4-[2-[(1-ethylimidazol-4-yl)amino]pyrimidin-5-yl]-2-fluorophenyl]-N-[5-[1-(trifluoromethyl)cyclopropyl]isoxazol-3-yl]acetamide], the GI50 is 10 to 50 nM.

For the molecule `COc1nn(C2CC2)cc1Nc1ncc(-c2ccc(CC(=O)Nc3cc(C4(C(F)(F)F)CC4)on3)c(F)c2)c(OC)n1` [P-136, 2-[4-[2-[(1-cyclopropyl-3-methoxypyrazol-4-yl)amino]-4-methoxy-pyrimidin-5-yl]-2-fluorophenyl]-N-[5-[1-(trifluoromethyl)cyclopropyl]isoxazol-3-yl]acetamide], the GI50 lay in the range of 10 to 50 nM.

As for `Cc1nn(C)cc1Nc1ncc(-c2ccc(CC(=O)Nc3cc(C4(C(F)(F)F)CC4)on3)c(F)c2)c(C)n1` [P-116, 2-[4-[2-[(1,3-dimethylpyrazol-4-yl)amino]-4-methyl-pyrimidin-5-yl]-2-fluorophenyl]-N-[5-[1-(trifluoromethyl)cyclopropyl]isoxazol-3-yl] acetamide], the GI50 fell in the range of 10 to 50 nM.
